# Test results as given in patent US20060058376A1, “Composition having autonomic nerve modulating activity and method of use thereof” (SUNTORY LIMITED, priority 2003, published 2006).
# Columns and labels:
# Format in all cases: in vivo, human
# [1] = tested on: activity of autonomic nerves; assay: Heart rate variability power spectral analysis in women with symptoms of climacteric disorder, double-blind parallel comparison; details: 4 weeks, 3 soft capsules each containing 10 mg of sesamin; supine position; FIG. 3
# Experimental: For 14 women who display symptoms of climacteric disorder, a test was carried out by double-blind parallel between-groups comparison. The subjects were randomly divided into two groups. Over a period of 4 weeks, 3 soft capsules each containing 10 mg of sesamin were ingested consecutively for one of the groups, and 3 placebo capsules were ingested consecutively for the other group. Before and after the ingestion of the sample, electrocardiograms were taken in a supine position, and the activity of the autonomic nerves was examined by heart rate variability power spectral analysis.
# [2] = tested on: activity of autonomic nerves; assay: Heart rate variability power spectrum after smoking, double blind crossover study; details: for level of LF/HF change: 3 soft capsules each containing 10 mg of sesamin, nine male university students
# Experimental: For nine male general university students, a test was carried out by a double blind, crossover study. Specifically, 3 soft capsules each containing 10 mg of sesamin and 3 placebo capsules were ingested, and the effect of the ingestion of the capsules on the activity of autonomic nerves was examined by a heart rate variability power spectrum method according to the method by Ue, H. et al. (Ue, H. et al., Ann. Noninvasive Electrocardiol., 5: 336-345 (2000)). After the ingestion of each sample, the students smoked one cigarette over a period of 4 min. Just before and after smoking, 10 min after smoking, and 30 min after smoking, electrocardiograms were taken, and sampling was carried out at 1024 Hz using 14-bit A/D conversion. Heart rate variability obtained from the electrocardiograms were processed by fast Fourier transform for frequency analysis to provide a heart rate variability power spectrum. In order to separate and quantify the heart rate variability spectrum, spectral integral values of two frequency bands (0.04 to 0.15 Hz and 0.15 to 0.4 Hz) are mainly determined. The spectral integral value of the low frequency (0.04 to 0.15 Hz) band was used as a measure of the activity of the sympathetic nerves and the activity of the parasympathetic nerves, while the spectral integral value of the high frequency (0.15 to 0.4 Hz) band was used as a measure of the activity of the parasympathetic nerves. Further, the value obtained by dividing the spectral integral value of the low frequency band by the spectral integral value of the high frequency band, that is, LF/HF, was used as a measure of the balance between the activity of the sympathetic nerves and the activity of the parasympathetic nerves (Akselrod S et al., Science 213: 220-222 (1981) and Moritani T et al., J sportmed Sci. 7: 31-39 (1993)). Further, the heart depolarization-repolarizaton time was measured by the QT interval.
# [3] = tested on: QT interval; assay: QT interval (heart depolarization-repolarization time) after smoking; details: FIG. 2; 3 x 10 mg sesamin capsules; placebo group significant prolongation (p<0.01)
# Experimental: For nine male general university students, a test was carried out by a double blind, crossover study. Specifically, 3 soft capsules each containing 10 mg of sesamin and 3 placebo capsules were ingested, and the effect of the ingestion of the capsules on the activity of autonomic nerves was examined by a heart rate variability power spectrum method according to the method by Ue, H. et al. (Ue, H. et al., Ann. Noninvasive Electrocardiol., 5: 336-345 (2000)). After the ingestion of each sample, the students smoked one cigarette over a period of 4 min. Just before and after smoking, 10 min after smoking, and 30 min after smoking, electrocardiograms were taken, and sampling was carried out at 1024 Hz using 14-bit A/D conversion. Heart rate variability obtained from the electrocardiograms were processed by fast Fourier transform for frequency analysis to provide a heart rate variability power spectrum. In order to separate and quantify the heart rate variability spectrum, spectral integral values of two frequency bands (0.04 to 0.15 Hz and 0.15 to 0.4 Hz) are mainly determined. […] Further, the heart depolarization-repolarizaton time was measured by the QT interval.
compound,measurement,setting,value
c1cc2c(cc1[C@H]1OC[C@H]3[C@@H]1CO[C@@H]3c1ccc3c(c1)OCO3)OCO2 [sesamin],overall autonomic nerve activity,[1],increased
same,parasympathetic nerve activity,[1],significantly increased
same,sympathetic nerve activity,[1],increased
same,level of LF/HF change,[2]; 30 min after smoking,−0.239
same,level of LF/HF change,[2]; just after smoking,+2.87
same,lowering in the activity of the parasympathetic nerves caused by smoking,"[2]; vs placebo, p<0.05, FIG. 1, 3 x 10 mg sesamin capsules",significantly inhibited
same,prolongation of QT interval caused by smoking,[3],no significant prolongation
